Data taken from patent publication US20240122844A1, “CARRIER FOR SUSTAINED-RELEASE OF DRUG AND USE THEREOF” (KUNMING QINGCHENG HEALTHCARE TECH LTD., priority 2022, published 2024).
Counter-ions that a name gives are not always drawn.

Experiment: Sustained release of metformin hydrochloride, ranitidine hydrochloride, vitamin B1 and benzalkonium chloride from carrier formulations into purified water, UV absorbance
Format: physicochemical
Details: released when absorbance is increased less than 0.01
Source text: • 1) Test samples: formulation 5, formulation 6, formulation 7, formulation 8, formulation 9; • 2) Drug release medium: purified water (Wahaha®).
• 1) group F where the sample is 0.1990 g of formulation 6 and the medium is 30.11 g of purified water; • 2) group G where the sample is 0.2016 g of formulation 5 and the medium is 30.14 g of purified water; • 3) group H where the sample is 0.2087 g of formulation 7 and the medium is 30.11 g of purified water; • 4) group I where the sample is 0.2016 g of formulation 8 and the medium is 30.12 g of purified water; • 5) group J where the sample is 0.0975 g of formulation 9 and the medium is 30.18 g of purified water.
• 1) The test samples with different formulations were respectively introduced into 2 mL-syringes. 2) About 0.2 g of the test samples, but for benzalkonium chloride about 0.1 g of the test sample, were squeezed out from the syringes without a needle into 30 mL transparent bottles respectively. The tests samples in the bottles were accurately weighed. 3) 30.0 g of the drug release medium was added to each bottle. 4) The absorbance spectrum of the liquid in each bottle was scanned and the absorbance at the wavelength of 232 nm for metformin hydrochloride, 313 nm for ranitidine hydrochloride, 261 nm for vitamin B1, or 219 nm for benzalkonium chloride was measured every 24 hours. 5) In groups H, I and J, the purified water (Wahaha®) was used as the reference solution. In groups F and G, blank carriers in formulations 2 and 3 without metformin hydrochloride were used to prepare the reference solutions according to the above steps 1) to 3) of “4. Experimental method”. The liquids to be tested and the reference solutions of groups F and G were taken from the bottles with the carriers and put back to the bottles after the spectral scanning.

| Compound | Duration of release of the drug from the sustained-release carriers |
| --- | --- |
| CN(C)C(=N)N=C(N)N [metformin hydrochloride] | about 3 days |
| CNC(=C[N+](=O)[O-])NCCSCc1ccc(CN(C)C)o1 [ranitidine hydrochloride] | about 4 days |
| Cc1ncc(C[n+]2csc(CCO)c2C)c(N)n1 [vitamin B1] | about 4 days |
| benzalkonium chloride | about 4 days |
